Laboratory results taken from PMC8385062, “Deciphering ion transport and ATPase coupling in the intersubunit tunnel of KdpFABC” (Nature Communications, 2021).

Target: T1, KdpFABC (nucleotide / vanadate rows, site in KdpB) (Escherichia coli, UniProt P03960, D307N)
T1 construct: heterotetrameric complex, His-tagged KdpC, pBXC3H vector, produced in E. coli LB2003 (lacks endogenous K+ uptake systems), purified; Potassium-transporting ATPase KdpC subunit; Potassium-transporting ATPase KdpF subunit
Experiment: cryo-EM structure, […] Å
Type: binding
Conditions: 5 mM AMPPCP, 50 mM KCl; between N and P domains of KdpB, E1·ATP state

T1 sequence (P03960 whole entry D307N): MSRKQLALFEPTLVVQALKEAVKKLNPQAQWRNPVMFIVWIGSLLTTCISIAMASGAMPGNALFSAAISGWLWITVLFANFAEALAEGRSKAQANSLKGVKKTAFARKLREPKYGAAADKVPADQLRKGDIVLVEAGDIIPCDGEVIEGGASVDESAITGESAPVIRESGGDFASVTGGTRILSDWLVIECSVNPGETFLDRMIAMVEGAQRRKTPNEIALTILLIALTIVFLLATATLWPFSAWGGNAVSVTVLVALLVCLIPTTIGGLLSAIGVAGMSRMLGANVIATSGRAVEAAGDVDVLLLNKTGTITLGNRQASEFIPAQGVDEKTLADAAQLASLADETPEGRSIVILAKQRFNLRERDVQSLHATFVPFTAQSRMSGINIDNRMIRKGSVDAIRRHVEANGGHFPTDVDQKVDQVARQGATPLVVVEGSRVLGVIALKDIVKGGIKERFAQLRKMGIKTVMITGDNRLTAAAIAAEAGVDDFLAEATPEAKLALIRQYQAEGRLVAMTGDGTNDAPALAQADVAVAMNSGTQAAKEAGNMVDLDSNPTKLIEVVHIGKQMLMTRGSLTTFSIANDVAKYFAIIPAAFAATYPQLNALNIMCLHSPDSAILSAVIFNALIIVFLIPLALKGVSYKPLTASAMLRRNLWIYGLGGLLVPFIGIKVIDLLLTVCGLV
T1 sequence (P03959 whole entry partner): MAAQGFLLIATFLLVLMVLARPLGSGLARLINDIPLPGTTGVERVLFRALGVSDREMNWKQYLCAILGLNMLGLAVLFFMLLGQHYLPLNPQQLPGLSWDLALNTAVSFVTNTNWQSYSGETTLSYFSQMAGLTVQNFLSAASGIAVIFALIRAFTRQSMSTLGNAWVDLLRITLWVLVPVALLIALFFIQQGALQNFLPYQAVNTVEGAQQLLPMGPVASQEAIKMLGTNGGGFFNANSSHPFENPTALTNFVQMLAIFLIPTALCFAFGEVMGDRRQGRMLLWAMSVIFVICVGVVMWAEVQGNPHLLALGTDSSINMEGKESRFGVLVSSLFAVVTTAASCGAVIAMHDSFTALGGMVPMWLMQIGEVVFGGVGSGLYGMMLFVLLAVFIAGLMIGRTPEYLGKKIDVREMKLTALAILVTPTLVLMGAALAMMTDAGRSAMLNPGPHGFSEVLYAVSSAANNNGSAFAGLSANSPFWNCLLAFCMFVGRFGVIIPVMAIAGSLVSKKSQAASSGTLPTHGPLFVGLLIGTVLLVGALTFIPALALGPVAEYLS
T1 sequence (P03961 whole entry partner): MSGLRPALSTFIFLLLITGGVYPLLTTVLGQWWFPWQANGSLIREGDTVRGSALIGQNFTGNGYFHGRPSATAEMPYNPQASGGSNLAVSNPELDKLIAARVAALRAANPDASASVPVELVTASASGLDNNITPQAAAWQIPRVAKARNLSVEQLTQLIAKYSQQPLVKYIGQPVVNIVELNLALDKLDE
T1 sequence (P36937 whole entry partner): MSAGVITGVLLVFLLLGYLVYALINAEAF

`Nc1ncnc2c1ncn2[C@@H]1O[C@H](COP(=O)(O)OP(=O)(O)CP(=O)(O)O)[C@@H](O)[C@H]1O` [AMPPCP] was tested, and the “cryo-EM structure, 3.1 Å” value was “The nucleotide AMPPCP is coordinated between the N and P domains”.
